Measurements: patent publication US9745320B2, “Five-and-six-membered heterocyclic compound, and preparation method, pharmaceutical composition and use thereof” (SHANGHAI CHEMEXPLORER CO., LTD., priority 2013, dated 2017)

Columns and labels:
Type in all cases: biochemical
JAK1 = JAK1 (Homo sapiens, UniProt P23458); assay: JAK 1 enzymatic inhibitory activity IC50 assay (Caliper conversion rate); conditions: Km ATP, 28° C., 1 hour
Procedure, shortened: (§1)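 Human JAK1 or JAK2 enzyme was preincubated with graded compound (2% DMSO) in HEPES pH 7.5/Brij-35/DTT buffer (JAK1 also with Triton), then peptide substrate, 10 mM MgCl2 and ATP at Km were added. Reactions ran 1 hour at 28° C; Caliper conversion rate gave inhibition, averaged over two tests, for IC50.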

JAK2 = JAK2 (Homo sapiens, UniProt O60674); assay: JAK 2 enzymatic inhibitory activity IC50 assay (Caliper conversion rate); conditions: Km ATP, 28° C., 1 hour
Sequence of JAK2 (O60674 whole entry, species assumed): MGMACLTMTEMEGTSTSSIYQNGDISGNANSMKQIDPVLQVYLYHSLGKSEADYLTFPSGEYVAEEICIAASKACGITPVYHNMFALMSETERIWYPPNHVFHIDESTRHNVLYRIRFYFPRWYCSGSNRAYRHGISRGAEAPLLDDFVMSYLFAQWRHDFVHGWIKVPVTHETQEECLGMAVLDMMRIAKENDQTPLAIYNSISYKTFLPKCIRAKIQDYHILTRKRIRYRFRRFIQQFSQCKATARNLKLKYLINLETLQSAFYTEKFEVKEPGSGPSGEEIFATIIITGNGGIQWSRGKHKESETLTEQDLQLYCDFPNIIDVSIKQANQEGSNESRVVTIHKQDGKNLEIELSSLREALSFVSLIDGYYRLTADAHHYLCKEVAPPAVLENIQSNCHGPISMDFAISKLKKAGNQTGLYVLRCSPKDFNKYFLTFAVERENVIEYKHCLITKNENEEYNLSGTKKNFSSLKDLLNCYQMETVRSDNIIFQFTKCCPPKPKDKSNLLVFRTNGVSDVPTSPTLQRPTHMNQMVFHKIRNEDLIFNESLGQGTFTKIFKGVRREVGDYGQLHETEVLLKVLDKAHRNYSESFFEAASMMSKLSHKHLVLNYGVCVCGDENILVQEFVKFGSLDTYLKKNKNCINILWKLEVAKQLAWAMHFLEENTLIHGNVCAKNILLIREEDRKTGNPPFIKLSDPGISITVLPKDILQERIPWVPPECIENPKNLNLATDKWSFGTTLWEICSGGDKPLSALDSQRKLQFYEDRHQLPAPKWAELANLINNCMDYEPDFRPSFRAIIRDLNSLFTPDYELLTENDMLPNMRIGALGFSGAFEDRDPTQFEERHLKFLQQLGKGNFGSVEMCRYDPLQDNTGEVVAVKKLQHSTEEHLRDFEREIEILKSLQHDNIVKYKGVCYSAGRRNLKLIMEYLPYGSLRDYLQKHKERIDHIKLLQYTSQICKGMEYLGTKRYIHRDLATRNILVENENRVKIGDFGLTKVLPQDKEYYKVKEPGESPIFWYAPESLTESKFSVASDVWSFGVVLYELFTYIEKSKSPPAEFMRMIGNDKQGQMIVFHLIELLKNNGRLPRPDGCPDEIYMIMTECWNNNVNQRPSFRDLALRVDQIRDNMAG
Procedure, shortened: as §1

JAK3 = target: T1, JAK3 (Homo sapiens, UniProt P52333); assay: JAK 3 enzymatic inhibitory activity IC50 assay (Caliper conversion rate); conditions: Km ATP, 28° C., 1 hour; read-out: JAK 3 enzymatic inhibitory activity IC50
T1 sequence (P52333 1-1124): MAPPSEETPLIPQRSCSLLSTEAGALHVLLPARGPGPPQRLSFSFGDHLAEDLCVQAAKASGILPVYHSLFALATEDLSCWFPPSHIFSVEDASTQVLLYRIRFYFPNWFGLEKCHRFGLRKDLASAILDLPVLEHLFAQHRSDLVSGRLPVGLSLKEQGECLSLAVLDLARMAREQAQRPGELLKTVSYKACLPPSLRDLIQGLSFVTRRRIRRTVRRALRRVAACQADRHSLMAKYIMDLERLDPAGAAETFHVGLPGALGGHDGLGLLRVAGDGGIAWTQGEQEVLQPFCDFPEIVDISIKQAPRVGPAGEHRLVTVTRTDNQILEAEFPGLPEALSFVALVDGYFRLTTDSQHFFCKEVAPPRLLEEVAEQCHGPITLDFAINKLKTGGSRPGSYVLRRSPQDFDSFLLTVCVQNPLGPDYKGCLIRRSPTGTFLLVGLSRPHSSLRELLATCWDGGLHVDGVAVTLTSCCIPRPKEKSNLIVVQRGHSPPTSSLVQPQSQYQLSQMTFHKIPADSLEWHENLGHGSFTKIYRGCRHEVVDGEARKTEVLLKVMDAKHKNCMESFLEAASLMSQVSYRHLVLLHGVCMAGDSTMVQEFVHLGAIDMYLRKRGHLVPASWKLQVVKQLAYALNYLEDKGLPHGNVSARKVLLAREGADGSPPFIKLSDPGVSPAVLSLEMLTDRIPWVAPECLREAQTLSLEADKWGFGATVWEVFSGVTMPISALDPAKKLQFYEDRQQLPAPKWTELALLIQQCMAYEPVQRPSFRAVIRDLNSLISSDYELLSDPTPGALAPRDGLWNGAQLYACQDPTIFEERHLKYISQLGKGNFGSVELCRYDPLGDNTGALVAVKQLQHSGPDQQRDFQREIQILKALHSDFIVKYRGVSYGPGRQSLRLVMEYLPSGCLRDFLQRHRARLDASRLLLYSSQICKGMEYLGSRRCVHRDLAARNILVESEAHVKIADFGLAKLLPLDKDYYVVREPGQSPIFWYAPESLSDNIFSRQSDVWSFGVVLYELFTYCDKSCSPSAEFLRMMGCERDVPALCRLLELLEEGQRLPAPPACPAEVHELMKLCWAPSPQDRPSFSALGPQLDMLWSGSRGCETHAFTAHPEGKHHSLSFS

Sequence of JAK1 (P23458 whole entry, species assumed): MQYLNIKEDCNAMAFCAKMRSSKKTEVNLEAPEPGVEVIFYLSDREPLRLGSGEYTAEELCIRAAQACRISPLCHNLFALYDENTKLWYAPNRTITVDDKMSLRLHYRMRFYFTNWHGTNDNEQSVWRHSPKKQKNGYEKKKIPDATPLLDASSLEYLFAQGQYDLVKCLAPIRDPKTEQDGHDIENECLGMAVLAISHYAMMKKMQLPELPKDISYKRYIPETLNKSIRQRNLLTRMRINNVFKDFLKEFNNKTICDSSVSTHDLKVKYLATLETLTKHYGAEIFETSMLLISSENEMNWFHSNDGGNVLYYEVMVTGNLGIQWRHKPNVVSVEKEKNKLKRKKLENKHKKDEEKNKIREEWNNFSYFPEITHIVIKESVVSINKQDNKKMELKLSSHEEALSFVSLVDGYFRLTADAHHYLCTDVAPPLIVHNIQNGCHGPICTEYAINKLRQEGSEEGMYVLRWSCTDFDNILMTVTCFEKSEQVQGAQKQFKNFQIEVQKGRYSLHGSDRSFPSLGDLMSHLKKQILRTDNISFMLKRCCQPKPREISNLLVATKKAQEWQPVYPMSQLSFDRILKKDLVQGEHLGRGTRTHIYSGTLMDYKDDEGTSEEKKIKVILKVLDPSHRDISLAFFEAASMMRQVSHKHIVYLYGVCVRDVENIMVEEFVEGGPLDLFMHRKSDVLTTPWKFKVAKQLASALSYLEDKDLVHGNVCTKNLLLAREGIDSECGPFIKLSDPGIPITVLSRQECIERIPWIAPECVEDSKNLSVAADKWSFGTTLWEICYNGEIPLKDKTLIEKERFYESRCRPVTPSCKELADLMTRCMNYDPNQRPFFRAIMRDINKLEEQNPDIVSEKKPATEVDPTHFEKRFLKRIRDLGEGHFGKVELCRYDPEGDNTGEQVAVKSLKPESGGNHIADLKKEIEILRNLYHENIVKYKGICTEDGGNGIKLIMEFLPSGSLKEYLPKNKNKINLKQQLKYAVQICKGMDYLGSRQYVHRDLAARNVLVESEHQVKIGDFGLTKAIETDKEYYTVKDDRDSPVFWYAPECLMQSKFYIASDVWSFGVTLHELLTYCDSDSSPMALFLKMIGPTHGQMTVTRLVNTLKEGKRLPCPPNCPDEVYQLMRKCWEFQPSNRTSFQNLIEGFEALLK

| SMILES | IC50 (JAK1) | IC50 (JAK2) | IC50 (JAK3) |
| --- | --- | --- | --- |
| Cn1cc(Nc2nc(-c3cnn(C4(CC#N)CC4)c3)c3sccc3n2)cn1 [Compound T-75, 2-(1-(4-(2-((1-Methyl-1H-pyrazol-4-yl)amino)thieno[3,2-d]pyrimidin-4-yl)-1H-pyrazol-1-yl)cyclopropyl)acetonitrile] | 50 to 500 nM | < 50 nM | 50 to 500 nM |
| N#CCC1(n2cc(-c3nc(Nc4cnn(C5CC5)c4)nc4ccsc34)cn2)CC1 [Compound T-76, 2-(1-(4-(2-((1-Cyclopropyl-1H-pyrazol-4-yl)amino)thieno[3,2-d]pyrimidin-4-yl)-1H-pyrazol-1-yl)cyclopropyl)acetonitrile] | 50 to 500 nM | < 50 nM | 50 to 500 nM |
| Cn1cc(Nc2nc(-c3cnn(C4(CC#N)CC(F)C4)c3)c3sccc3n2)cn1 (stereo not drawn) [Compound T-77, 2-(3-Fluoro-1-(4-(2-((1-methyl-1H-pyrazol-4-yl)amino)thieno[3,2-d]pyrimidin-4-yl)-1H-pyrazol-1-yl)cyclobutyl)acetonitrile] | 50 to 500 nM | < 50 nM | 50 to 500 nM |
| CC(C)(O)Cn1cc(Nc2nc(-c3cnn(C4(CC#N)CN(S(C)(=O)=O)C4)c3)c3sccc3n2)cn1 [Compound T-78, 2-(3-(4-(2-((1-(2-Hydroxy-2-methylpropyl)-1H-pyrazol-4-yl)amino)thieno[3,2-d]pyrimidin-4-yl)-1H-pyrazol-1-yl)-1-(methylsulfonyl)azetidin-3-yl)acetonitrile] | < 50 nM | < 50 nM | < 50 nM |
| CC(C)(CO)n1cc(Nc2nc(-c3cnn(C4(CC#N)CN(S(C)(=O)=O)C4)c3)c3sccc3n2)cn1 [Compound T-79, 2-(3-(4-(2-((1-(1-Hydroxy-2-methylpropan-2-yl)-1H-pyrazol-4-yl)amino)thieno[3,2-d]pyrimidin-4-yl)-1H-pyrazol-1-yl)-1-(methylsulfonyl)azetidin-3-yl)acetonitrile] | < 50 nM | < 50 nM | < 50 nM |
| C[C@@H](O)Cn1cc(Nc2nc(-c3cnn(C4(CC#N)COC4)c3)c3sccc3n2)cn1 [Compound T-80, (R)-2-(3-(4-(2-((1-(2-Hydroxypropyl)-1H-pyrazol-4-yl)amino)thieno[3,2-d]pyrimidin-4-yl)-1H-pyrazol-1-yl)oxetan-3-yl)acetonitrile] | 50 to 500 nM | < 50 nM | 50 to 500 nM |
| C[C@H](O)Cn1cc(Nc2nc(-c3cnn(C4(CC#N)COC4)c3)c3sccc3n2)cn1 [Compound T-81, (S)-2-(3-(4-(2-((1-(2-Hydroxypropyl)-1H-pyrazol-4-yl)amino)thieno[3,2-d]pyrimidin-4-yl)-1H-pyrazol-1-yl)oxetan-3-yl)acetonitrile] | 50 to 500 nM | < 50 nM | 50 to 500 nM |
| C[C@H](CO)n1cc(Nc2nc(-c3cnn(C4(CC#N)COC4)c3)c3sccc3n2)cn1 [Compound T-82, (R)-2-(3-(4-(2-((1-(1-Hydroxypropan-2-yl)-1H-pyrazol-4-yl)amino)thieno[3,2-d]pyrimidin-4-yl)-1H-pyrazol-1-yl)oxetan-3-yl)acetonitrile] | 50 to 500 nM | < 50 nM | 50 to 500 nM |
| C[C@@H](CO)n1cc(Nc2nc(-c3cnn(C4(CC#N)COC4)c3)c3sccc3n2)cn1 [Compound T-83, (S)-2-(3-(4-(2-((1-(1-Hydroxypropan-2-yl)-1H-pyrazol-4-yl)amino)thieno[3,2-d]pyrimidin-4-yl)-1H-pyrazol-1-yl)oxetan-3-yl)acetonitrile] | < 50 nM | < 50 nM | 50 to 500 nM |
| C[C@H](CO)n1cc(Nc2nc(-c3cnn(C4(CC#N)CN(S(C)(=O)=O)C4)c3)c3sccc3n2)cn1 [Compound T-84, (R)-2-(3-(4-(2-((1-(1-Hydroxypropan-2-yl)-1H-pyrazol-4-yl)amino)thieno[3,2-d]pyrimidin-4-yl)-1H-pyrazol-1-yl)-1-(methylsulfonyl)azetidin-3-yl)acetonitrile] | < 50 nM | < 50 nM | < 50 nM |
| C[C@@H](CO)n1cc(Nc2nc(-c3cnn(C4(CC#N)CN(S(C)(=O)=O)C4)c3)c3sccc3n2)cn1 [Compound T-85, (S)-2-(3-(4-(2-((1-(1-Hydroxypropan-2-yl)-1H-pyrazol-4-yl)amino)thieno[3,2-d]pyrimidin-4-yl)-1H-pyrazol-1-yl)-1-(methylsulfonyl)azetidin-3-yl)acetonitrile] | < 50 nM | < 50 nM | < 50 nM |
| C[C@@H](O)Cn1cc(Nc2nc(-c3cnn(C4(CC#N)CN(S(C)(=O)=O)C4)c3)c3sccc3n2)cn1 [Compound T-86, (R)-2-(3-(4-(2-((1-(2-Hydroxypropyl)-1H-pyrazol-4-yl)amino)thieno[3,2-d]pyrimidin-4-yl)-1H-pyrazol-1-yl)-1-(methylsulfonyl)azetidin-3-yl)acetonitrile] | < 50 nM | < 50 nM | < 50 nM |
| C[C@H](O)Cn1cc(Nc2nc(-c3cnn(C4(CC#N)CN(S(C)(=O)=O)C4)c3)c3sccc3n2)cn1 [Compound T-87, (S)-2-(3-(4-(2-((1-(2-Hydroxypropyl)-1H-pyrazol-4-yl)amino)thieno[3,2-d]pyrimidin-4-yl)-1H-pyrazol-1-yl)-1-(methylsulfonyl)azetidin-3-yl)acetonitrile] | < 50 nM | < 50 nM | < 50 nM |
